In brackets after ≈: the same amount, converted by molar mass. Records with an inconclusive call do not appear. Activity calls are given as the source filed them. How the calls were made is not given here.

Broadly, the IC50 is the concentration that inhibits the measured activity by half.

The assay concerns M. tuberculosis H37Rv growth inhibition. The assay can be described thus: Mycobacterium tuberculosis H37Rv growth inhibition, cell based, confirmatory dose response (AID 1949).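 Further: bacteria grown 7 days with compound before Alamar blue readout.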
With `COC(=O)COc1ccc(-c2ccccc2)cc1`, the half-maximal inhibitory concentration (IC50) was 0.22 µg/mL (≈ 0.908 µM).
For `Cc1nc(SCc2csc(C)n2)c2c3c(sc2n1)CCCC3` the value was 1.61 µg/mL (≈ 4.63 µM).
As to `CCOC(=O)COc1ccc(S(=O)(=O)N2CCc3ccccc3C2)cc1`, the IC50 was 0.64 µg/mL (≈ 1.7 µM).
For `Oc1ccc(Br)cc1C1=NNC(c2ccc(F)cc2)C1` (configuration not stated) the value was 2.89 µg/mL (≈ 8.62 µM); for `Cc1cccc2sc(NC(=O)c3ccc(C(C)(C)C)cc3)nc12`, 1.39 µg/mL (≈ 4.28 µM).
As for `O=C(Oc1ccc(Cl)cc1)c1sc2ccccc2c1Cl`, the figure is 24.2 µg/mL (≈ 74.9 µM).
Take `N#Cc1c(NC(=S)NC(=O)C2CCCC2)sc2c1CCCC2`: the IC50 is 28.4 µg/mL (≈ 85.2 µM).
For `O=C(NC1CCCCC1)c1ccc(COc2cccc3ccccc23)o1` the value was 4.65 µg/mL (≈ 13.3 µM).
For `O=C(CC1(O)C(=O)N(CCc2ccccc2)c2ccc(Cl)cc21)c1ccccn1` (configuration not stated), the half-inhibitory concentration (IC50) was 5.07 µg/mL (≈ 12.5 µM).
As for `CC(C)(C)c1ccc(C(=O)NC(=S)Nc2cccc(C#N)c2)cc1`, the figure is > 50 µg/mL (inactive); as for `NC(=O)CSc1nnc(SCc2ccc(Cl)cc2)s1`, 5.19 µg/mL (≈ 15.6 µM); as for `COc1ccc(-n2nc3ccc(NC(=O)c4ncn[nH]4)cc3n2)cc1Cl`, > 50 µg/mL (inactive).
As for `O=C(CN1CCN(Cc2ccccc2)CC1)Nc1ccc([N+](=O)[O-])cc1C(=O)c1ccccc1`, the IC50 was 2.78 µg/mL (≈ 6.06 µM).
For `Cc1nc2ccc(C(=O)OCc3nnc(-c4ccccc4)o3)cc2nc1C` the value was 2.98 µg/mL (≈ 8.27 µM).
For the molecule `COc1ccc(/C=C/c2nc3ccccc3c(=O)o2)cc1`, the half-maximal inhibitory concentration (IC50) is 27.6 µg/mL (≈ 99 µM).
On to `O=C(Nc1ccccc1Cl)c1cc([N+](=O)[O-])ccc1O`, for which the concentration for half-maximal inhibition (IC50) is 7.53 µg/mL (≈ 25.7 µM).
For `Cc1cc(Br)c2[nH]c(O)c(N=NC(=O)COc3ccccc3C)c2c1` the value was 18.7 µg/mL (≈ 46.4 µM); for `COC(=O)c1ccc(OCC(=O)Nc2ccccc2F)cc1`, 0.55 µg/mL (≈ 1.81 µM).
For `CCc1cc2c(=O)c(-c3ccc4c(c3)OCCO4)coc2cc1OCC(=O)OC(C)C` the value was 5.83 µg/mL (≈ 13.7 µM); for `Cc1ccc(NC(=O)C(=O)NNC(=O)c2ccco2)cc1Cl`, 1.41 µg/mL (≈ 4.38 µM).
As for `Cc1ccc(NC(CC(=O)c2ccc([N+](=O)[O-])cc2)c2ccccc2)cc1` (configuration not stated), the figure is 49.2 µg/mL (≈ 136 µM); as for `O=C(NNC(=S)NCc1ccc(F)cc1)c1ccncc1`, 5.78 µg/mL (≈ 19 µM).
Take `CC1CCCc2sc(NC(=S)NC(=O)c3ccccc3)c(C#N)c21` (configuration not stated): the IC50 is 0.94 µg/mL (≈ 2.64 µM).
As for `CC(C)c1ccc(NC(=S)NC(=O)c2ccccc2F)cc1`, the figure is 2.56 µg/mL (≈ 8.09 µM); as for `COc1ccc(Cc2nnc(SCC(=O)NCCc3ccccc3)o2)cc1`, below 0.1 µg/mL; as for `Cc1ccc(-n2sc3ccccc3c2=O)cc1`, below 0.1 µg/mL.
As for `Clc1ccc(OCCOCCNCc2ccccc2)c2ccccc12`, the figure is 6.11 µg/mL (≈ 17.2 µM).
With `Cc1ccc(-c2[nH]c(-c3ccc([N+](=O)[O-])cc3)nc2-c2ccccc2)cc1`, the half-maximal inhibitory concentration (IC50) is 7.13 µg/mL (≈ 20.1 µM).
For `O=S(=O)(Nc1cc(Br)c(O)c2ccccc12)c1ccc(F)cc1` the value was 3.06 µg/mL (≈ 7.72 µM); for `COc1ccc(OC)c(NC(=O)c2cc3cc(Br)ccc3oc2=O)c1`, 0.2 µg/mL (≈ 0.495 µM); for `CC(=O)NC(=S)NNC(=O)c1ccc(C(C)(C)C)cc1`, 0.29 µg/mL (≈ 0.988 µM).
For `O=C1C(=O)N(Cc2ccccc2Cl)c2ccc(Br)cc21` the value was 3.79 µg/mL (≈ 10.8 µM); for `O=C(Oc1ccccc1)c1ccc(COC(=O)c2cc3ccccc3oc2=O)cc1`, > 50 µg/mL (inactive).
As for `CC(=O)NC(=S)NNC(=O)c1ccc(C)c(Br)c1`, the figure is 1.77 µg/mL (≈ 5.36 µM); as for `COc1cc(/C=C/[N+](=O)[O-])ccc1OC(=O)c1ccco1`, 22.6 µg/mL (≈ 78.1 µM).
Take `Cc1ccc(-c2cnc(C)c(-c3ccccc3)c2)nc1-c1ccccc1`: the IC50 was > 50 µg/mL (inactive).
For `O=C(Cc1ccc(Cl)cc1)Oc1cccc2cccnc12` the value was > 50 µg/mL (inactive).
As for `Cc1ccc2c(c1)c(-c1ccccc1)c(-c1ccccc1)n2CC(O)CN1CCN(CCO)CC1` (configuration not stated), the figure is 1.84 µg/mL (≈ 3.92 µM).
As to `CCC(C)c1ccccc1OCC(=O)Nc1ccc(Cl)cc1` (configuration not stated), the IC50 is 4.68 µg/mL (≈ 14.7 µM).
As to `O=C(Nc1nc2c(s1)CCCC2)c1ccc(Br)s1`, the IC50 is 0.62 µg/mL (≈ 1.81 µM).
As for `O=C(Oc1ccc(C2CCCCC2)cc1)c1cccs1`, the figure is 13.3 µg/mL (≈ 46.4 µM); as for `O=C(Nc1ccc(C(F)(F)F)cc1)Nc1cccc(Cl)c1`, 0.2 µg/mL (≈ 0.636 µM).
As for `O=C(CC(O)(C(F)(F)F)C(F)(F)F)Nc1cc(Cl)ccc1Cl`, the figure is 5.84 µg/mL (≈ 15.8 µM); as for `O=[N+]([O-])c1cccc(NC(=S)Nc2ccc(Cl)c(Cl)c2)c1`, 0.3 µg/mL (≈ 0.877 µM); as for `COC(=O)C1=C(C)NC2=C(C(=O)CC(c3ccc(F)cc3)C2)C1c1ccccc1Cl` (configuration not stated), 3.64 µg/mL (≈ 8.55 µM).
As for `Cc1cc(OCC(O)CN2CCN(c3ccc(F)cc3)CC2)ccc1C(C)C` (configuration not stated), the figure is 11.7 µg/mL (≈ 30.2 µM).
With `CC(C)(C)c1ccc(C(=O)NC(=S)Nc2ccc(C(=O)O)cc2)cc1`, the half-inhibitory concentration (IC50) was 0.64 µg/mL (≈ 1.8 µM).
As for `CCCCOc1ccc(S(=O)(=O)Nc2ccc(I)cc2)cc1`, the figure is 2.84 µg/mL (≈ 6.58 µM); as for `CC1=NN(C(=S)Cc2ccccc2)C(C)(O)C1` (configuration not stated), 2.79 µg/mL (≈ 11.2 µM); as for `CC(Nc1nc(N2CCCCC2)nc2ccccc12)c1ccccc1` (configuration not stated), 2.29 µg/mL (≈ 6.89 µM).
On to `Clc1ccc(Nc2nc(-c3ccccn3)cs2)nc1`, for which the IC50 was below 0.1 µg/mL.
For `COc1ccc(Cn2c(=O)c3c(n4cnnc24)-c2ccccc2CC32CCCCC2)cc1` the value was 2.84 µg/mL (≈ 6.66 µM).
As for `Cc1ccc(NC(=O)c2ccc(N3CCN(C)CC3)c([N+](=O)[O-])c2)cc1Cl`, the figure is 2.22 µg/mL (≈ 5.71 µM).
For `CCN(CC)c1ccc(NC(=S)NCC(C)C)cc1` the value was 5.43 µg/mL (≈ 19.4 µM); for `Cc1ccc(C(=O)N2CCN(c3ccc(NC(=O)COc4c(C)cc(C)cc4Br)cc3)CC2)cc1`, 1.34 µg/mL (≈ 2.5 µM).
Regarding `CCOC(=O)COc1ccc2c(c1)c(C(C)=O)c(C)n2Cc1ccccc1`, the IC50 was 24.9 µg/mL (≈ 68.2 µM).
For `CCOC(=O)c1cccc(NC(=O)C(Cl)Cl)c1` the value was 3.07 µg/mL (≈ 11.1 µM).
For the molecule `CN(C)CCSc1nc(-c2cccs2)cc(-c2ccc(F)cc2)c1C#N`, the half-maximal inhibitory concentration (IC50) was 5.23 µg/mL (≈ 13.6 µM).
Take `Cc1ccc(NC(=S)Nc2ccc(Cl)c(Cl)c2)c(OC(F)F)c1`: the concentration for half-maximal inhibition (IC50) is 2.92 µg/mL (≈ 7.74 µM).
For `CCOc1ccc(C(=O)NC(=S)Nc2ccc(N3CCN(C)CC3)c(Cl)c2)cc1Cl` the value was > 50 µg/mL (inactive); for `Cc1cc(C(C)(C)C)ccc1OCCCCn1ccnc1`, 1.4 µg/mL (≈ 4.89 µM); for `CCOC(=O)COc1ccc(S(=O)(=O)Nc2cc(C)cc(C)c2)cc1`, 4.03 µg/mL (≈ 11.1 µM).
`CCn1nnc(NC(=O)COc2ccc(C3CCCCC3)cc2)n1`: the 50% inhibitory concentration (IC50) was 2.04 µg/mL (≈ 6.19 µM).
As for `O=C(Nc1ccc(-c2nc3ccccc3c(=O)o2)cc1)c1ccccc1I`, the figure is 0.37 µg/mL (≈ 0.79 µM); as for `O=C(Nc1ccc2c(c1)CCC2)c1ccc(Br)s1`, 1.45 µg/mL (≈ 4.5 µM); as for `CCOc1ccc(Nc2cc(C)nc3ccc(C(=O)OC)cc23)cc1`, 3.71 µg/mL (≈ 11 µM).
As to `CCC(=O)Oc1ccc(C(=O)Nc2cc3oc4ccccc4c3cc2OC)cc1`, the IC50 was 1.46 µg/mL (≈ 3.75 µM).
For `O=C(NC12CC3CC(CC(C3)C1)C2)N1CCN(c2cccc(C(F)(F)F)c2)CC1` the value was 0.96 µg/mL (≈ 2.36 µM).
As for `O=C(Nc1cccc(C(F)(F)F)c1)c1ccc(Cn2cc(Cl)cn2)cc1`, the figure is 5.67 µg/mL (≈ 14.9 µM); as for `CCOC(=O)COc1ccc2c(C)c(CC(=O)OC)c(=O)oc2c1C`, 7.36 µg/mL (≈ 21.1 µM); as for `Oc1c(CN2CCN(c3ccc(F)cc3)CC2)cc(Cl)c2cccnc12`, 1.07 µg/mL (≈ 2.88 µM).
For `CCCCOc1ccc(C2c3c(oc4ccc(Br)cc4c3=O)C(=O)N2CCCN2CCOCC2)cc1` (configuration not stated) the value was 3.77 µg/mL (≈ 6.79 µM); for `O=C(CSc1n[nH]c(-c2ccc(Cl)cc2)n1)Nc1ccc(F)c(Cl)c1`, 39 µg/mL (≈ 98.2 µM); for `Cc1ccc(-c2nnc3sc(Cc4ccccc4)nn23)cc1`, below 0.1 µg/mL.
`Cc1cc(Cl)c(OCCCNCc2ccccc2)c(Br)c1`: the IC50 is 11.3 µg/mL (≈ 30.7 µM).
As for `O=C(Nc1ccc(Cl)c(Br)c1)c1ccc(Cl)cc1Cl`, the figure is 4.23 µg/mL (≈ 11.1 µM).
As for `Cc1ccccc1/C=C/c1ccc2cccc(O)c2n1`, the figure is below 0.1 µg/mL; as for `CCc1ccc(NC(=S)Nc2ccc(Cl)c(Cl)c2)cc1`, 1.38 µg/mL (≈ 4.24 µM); as for `CCOC(=O)COc1ccc(S(=O)(=O)Nc2c(C)cccc2CC)cc1`, 0.33 µg/mL (≈ 0.874 µM).
With `COc1ccc(NC(=O)c2ccccc2Oc2ccccc2)c(OC)c1`, the half-maximal inhibitory concentration (IC50) is below 0.1 µg/mL.
With `OC(CN1CCCCCC1)CN1c2ccccc2Sc2ccccc21` (configuration not stated), the IC50 is 9.1 µg/mL (≈ 25.7 µM).
For `CSc1nsc(SCC(=O)N2CCN(c3ccccc3)CC2)n1` the value was 0.35 µg/mL (≈ 0.955 µM); for `O=C(CC(O)(C(F)(F)F)C(F)(F)F)Nc1ccc(Cl)cc1Cl`, 5.7 µg/mL (≈ 15.4 µM); for `Cc1ccc(-c2csc3ncn(C(C)C(=O)OC4CCCCC4)c(=O)c23)cc1C` (configuration not stated), 1.52 µg/mL (≈ 3.7 µM).
With `Cc1ccc(-c2ccc(/C=C/C(=O)c3ccco3)o2)cc1`, the IC50 was 1.71 µg/mL (≈ 6.14 µM).
As for `Cc1ccc2nc(N/N=C\c3ccc([N+](=O)[O-])o3)nc(-c3ccccc3)c2c1`, the figure is 3.63 µg/mL (≈ 9.72 µM).
For `C#CCSc1nnc(-c2ccc(Br)cc2)o1` the value was 0.94 µg/mL (≈ 3.18 µM); for `COc1ccc(C(=O)NC(=S)NNC(=O)c2ccc(OC)c(OC)c2)cc1Br`, below 0.1 µg/mL.
As for `N#Cc1c(C(F)(F)F)cc(-c2cccnc2)nc1SCC(=O)N1CCc2ccccc2C1`, the figure is > 50 µg/mL (inactive); as for `COC(=O)c1ccc(NC(=O)COc2ccc(-c3ccc(C#N)cc3)cc2)cc1`, 0.41 µg/mL (≈ 1.06 µM); as for `CCC(C)c1ccc(O)c(NC(=S)NC(=O)c2ccc(-c3ccc(Cl)cc3)o2)c1` (configuration not stated), below 0.1 µg/mL.
Take `O=C(NCCC1=CCCCC1)C12CC3CC(CC(C3)C1)C2`: the half-maximal inhibitory concentration (IC50) was 11.2 µg/mL (≈ 39 µM).
Turning to `O=C(CSc1ccc([N+](=O)[O-])cn1)Nc1ccc2c(c1)OCO2`, the IC50 is 7.47 µg/mL (≈ 22.4 µM).
For `O=[N+]([O-])/C=C/c1cccn1-c1ccc(F)cc1` the value was 7.57 µg/mL (≈ 32.6 µM); for `CCOC(=O)C(C)n1cnc2scc(-c3ccc(CC)cc3)c2c1=O` (configuration not stated), 3.9 µg/mL (≈ 10.9 µM).
As for `COc1ccccc1OCCCCN1CCN(C(c2ccccc2)c2ccccc2)CC1`, the figure is 8.02 µg/mL (≈ 18.6 µM).
As for `N#Cc1cc(Oc2ccc(OCc3ccccc3)cc2)c([N+](=O)[O-])cc1C#N`, the figure is below 0.1 µg/mL.
`CC(C)C(=O)Nc1ccc(C(=O)Oc2ccccc2)c(O)c1`: the IC50 was below 0.1 µg/mL.
As to `COc1ccccc1-c1coc2cc(OCC(=O)OCc3ccccc3)ccc2c1=O`, the IC50 is 0.35 µg/mL (≈ 0.84 µM).
As for `CC1CCCN(CCC(=O)c2ccc(Br)cc2)C1` (configuration not stated), the figure is 2.8 µg/mL (≈ 9.03 µM).
As for `O=S1(=O)C=C(Sc2nc3ccccc3s2)c2ccccc21`, the figure is below 0.1 µg/mL; as for `O=S(=O)(Nc1cc(Sc2ccccc2)c(O)c2ccccc12)c1cccs1`, 25.7 µg/mL (≈ 62.2 µM).

The values above are taken from PubChem BioAssay AID1949 (Southern Research Institute, 2009).
